US10851097B2, “4,5,6,7-tetrahydro-1H-imidazo[4,5-c]pyridine and 1,4,5,6,7,8-hexahydroimidazo[4,5-d]azepine derivatives as janus kinase inhibitors” (Topivert Pharma Limited, priority 2015, dated 2020)
pIC50, pKd: −log10 of the molar value. ≈ marks a conversion by molar mass, not a printed value.

Assays:
[1] = Solubility in fasted-state simulated colonic fluid (FaSSCoF) at pH 6.5; format: physicochemical; settings: 25 °C, pH 6.5, fassgf or other biorelevant, thermodynamic from solid, pH 6.5, 25° C., Run 1, read-out: pH 6.5 FaSSCoF Solubility Run 1
Description: The solubilities of compounds of the invention in FaSSCoF at pH 6.5 are determined using a modification of a previously-reported procedure (Vertzoni, M., et al. Pharm. Res. 2010, 27, 2187-2196). In place of the bile salt extract employed in the original procedure (which extract is no longer available), the modified procedure uses a mixture of sodium taurochlorate (0.15 g), glycocholic acid (0.15 g), ursodeoxycholic acid (0.05 g), cholic acid (0.05 g), and glycodeoxycholic acid (0.05 g). These five bile acids are ground together with a mortar and pestle to produce a fine white powder that is incorporated into the FaSSCoF, as outlined below.
Tris(hydroxymethyl)aminomethane (Tris; 0.275 g) and maleic acid (0.44 g) are dissolved in water (35 mL) to give a solution whose pH is adjusted to 6.5 by treatment with 0.5M NaOH (ca. 12 mL). The solution is then made up to 50 mL with water. A portion of this Tris/maleate buffer solution (ca. 25 mL) is added to a 0.5 L round-bottomed flask, before being treated with 0.00565 g of the bile acid mixture described above. Solutions of phosphatidylcholine (0.0111 g) in DCM (0.15 mL) and palmitic acid (0.0013 g) in DCM (0.15 mL) are added, then the organic solvent is evaporated off under reduced pressure at 40° C. until a clear solution, with no perceptible DCM odour, is achieved. The volume of the evaporated solution is adjusted to 50 mL by addition of the remainder of Tris/maleate buffer, then BSA (0.115 g) is added, before being dissolved by gentle agitation.
Test compounds are suspended in the pH 6.5 FaSSCoF medium to give a maximum final concentration of 2-10 mg/mL. The suspensions are equilibrated at 25° C. for 24 h, before being filtered through a glass fibre C filter. The filtrates are then diluted as appropriate for injection and quantification by HPLC with reference to a standard. Different volumes of the standard, diluted and undiluted sample solutions are injected and the solubilities are calculated using the peak areas determined by integration of the peak found at the same retention time as the principal peak in the standard injection.

Jurkat cells = assay: Cell cytotoxicity assay in Jurkat cells (assay (c)); format: cell-based, human; settings: 24 h, propidium iodide, normalised to DMSO control
Description: (c) Cell Cytotoxicity Assay
1×10^5 Jurkat cells (immortalised human T lymphocytes) are added to the appropriate number of wells of a 96 well plate in 100 μL of media (RPMI supplemented with 10% foetal bovine serum). 1 μL of DMSO control (final concentration 1.0% v/v) or test compound (final concentration 20, 5 or 1 μg/mL) is added to the wells and incubated at 37° C., 5% CO2. After 24 hours, the plate is centrifuged at 1200 rpm for 3 minutes and the supernatant discarded. Cells are then resuspended in 150 μL (final concentration 7.5 μg/mL) of propidium iodide (PI) in PBS and incubated at 37° C., 5% CO2 for 15 minutes. After 15 minutes, cells are analysed by flow cytometry (BD accuri) using the FL3 window. The % viability is calculated as the % of cells that are PI negative in the test wells normalised to the DMSO control.

JAK2 = target: T1, JAK2 (Homo sapiens, UniProt O60674); assay: KINOMEscan enzyme binding assay (DiscoveRx), JAK2; settings: read-out: Dissociation Constant JAK2
T1 construct: purchased DiscoveRx (LeadHunter Discover Services, KINOMEscan)
Description: (§1) These assays may be conducted by DiscoveRx (formerly Ambit; San Diego, Calif.). The percentage inhibition produced by incubation with a test compound may be calculated relative to the non-inhibited control.

TYK2 = target: T2, TYK2 (Homo sapiens, UniProt P29597); assay: KINOMEscan enzyme binding assay (DiscoveRx), TYK2; settings: read-out: Dissociation Constant TYK2
T2 construct: purchased DiscoveRx (LeadHunter Discover Services, KINOMEscan)
T2 sequence (P29597 888-1187 limits assumed): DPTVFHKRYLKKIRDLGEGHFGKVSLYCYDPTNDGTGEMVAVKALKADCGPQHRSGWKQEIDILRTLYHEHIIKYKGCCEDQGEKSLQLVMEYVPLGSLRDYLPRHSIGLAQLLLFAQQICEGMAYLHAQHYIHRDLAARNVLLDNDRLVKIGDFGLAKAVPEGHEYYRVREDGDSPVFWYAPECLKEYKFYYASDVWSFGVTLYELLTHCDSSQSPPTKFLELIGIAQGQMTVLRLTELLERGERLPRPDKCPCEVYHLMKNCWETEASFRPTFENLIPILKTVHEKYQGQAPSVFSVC
Description: as §1

[2] = test system: CD3/IL2 stimulated PBMC cells; assay: IFNγ release from CD3/IL2 stimulated PBMC cells (assay (a)); format: cell-based; settings: Homo sapiens, CD3/IL2 stimulation, 48 h, ELISA
Description: (a) IFNγ Release from CD3/IL2 Stimulated PBMC Cells
PBMCs from healthy subjects are separated from whole blood using a density gradient (Lymphoprep, Axis-Shield Healthcare). Cells are added to a 96 well plate, and compound at the desired concentration added 2 hours prior to stimulation with a mixture of monoclonal antibody to CD3 (1 μg/ml, eBioscience) and human recombinant IL2 (10 ng/ml, Peprotech). After 48 hours incubation under normal tissue culture conditions, supernatants are collected and IFNγ release determined by Sandwich ELISA (Duo-set, R&D System). The IC50 is determined from the dose response curve.

T1 sequence (O60674 840-1132 limits assumed): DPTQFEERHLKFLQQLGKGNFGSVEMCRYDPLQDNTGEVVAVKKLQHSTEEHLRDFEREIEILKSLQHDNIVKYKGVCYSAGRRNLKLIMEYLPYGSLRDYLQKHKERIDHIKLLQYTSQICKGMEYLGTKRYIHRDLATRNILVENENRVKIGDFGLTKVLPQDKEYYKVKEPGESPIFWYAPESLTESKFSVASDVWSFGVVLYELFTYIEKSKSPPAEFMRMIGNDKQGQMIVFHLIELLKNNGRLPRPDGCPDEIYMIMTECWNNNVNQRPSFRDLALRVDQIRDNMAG

**Q.** Which solubility thermodynamic at 24 h [1] does the source give for `CCc1cc(O)c(F)cc1-c1ccc2c(-c3nc4c([nH]3)CCN(C(=O)c3cnc(N(C)CCN5CCCC5=O)cn3)C4)n[nH]c2c1` [Example 2(k), 1-(2-((5-(2-(6-(2-ethyl-5-fluoro-4-hydroxyphenyl)-1H-indazol-3-yl)-4,5,6,7-tetrahydro-1H-imidazo[4,5-c]pyridine-5-carbonyl)pyrazin-2-yl)(methyl)amino)ethyl)pyrrolidin-2-one] here?
**A.** 10 µg/mL (≈ 16 µM)

**Q.** And the “% viability at 1 μg/mL” value (Jurkat cells)?
**A.** 93%

**Q.** What about the pKd (JAK2) of the same compound?
**A.** 10.33

**Q.** What about the pKd (TYK2) of the same compound?
**A.** 9.89

**Q.** And the pIC50 [2]?
**A.** 8.00
